The values that follow are results of earlier work, collected in patent US20100145053A1, “MODIFIED RELEASE CLOPIDOGREL FORMULATION” (CADILA HEALTHCARE LIMITED, priority 2006, published 2010).

Where two headings read alike, the source gives them in different places.

For series [1] the following is noted: in vivo.
Series [2] deals with platelet aggregation to ADP. Particulars: 4 hours after 600-mg load.
Series [3] has as its system ADP-induced platelet aggregation. Particulars: in vivo.
The test system of series [4] is platelet aggregation in response to ADP. Particulars: 300-mg loading dose followed by 75 mg daily.

`COC(=O)[C@H](c1ccccc1Cl)N1CCc2sccc2C1` [Clopidogrel bisulfate]: in series [1], the “Time of peak concentration of Clopidogrel and its active metabolite post dosing” value is 1 to 3 h.

For `COC(=O)[C@H](c1ccccc1Cl)N1CCc2sccc2C1` [Clopidogrel, Methyl (+)-(S)-alpha-(o-chlorophenyl)-6,7-dihydrothieno(3,2-c)pyridine-5(4H)-acetate], the figures for the “Nonresponders (<10% reduction in platelet aggregation)” value in series [2] (5 μmol/L ADP) and in series [2] (20 μmol/ADP) were 5% and 11%, respectively. For the same compound, the figures for the “Semiresponders (10% to 29% reduction in platelet aggregation)” value in series [2] (5 μmol/L ADP) and in series [2] (20 μmol/ADP) were 9% and 26%, respectively. The “Time for platelet aggregation and bleeding time to return to baseline after treatment is discontinued” value in series [3] is “about 5 days”. Further, the “Patients with Clopidogrel resistance (<10% reduction in aggregation in response to 5 μmol/L ADP)” value is reported as 63 % of patients in series [4] (at 2 hours), 31 % of patients in series [4] (at 24 hours), 31 % of patients in series [4] (at 5 days) and 15 % of patients in series [4] (at 30 days). Besides, in series [1], the “Share of Clopidogrel available to undergo hepatic conversion to the active metabolite” value was 15%. For the same compound, the “Share of Clopidogrel inactivated by esterases in the blood after absorption” value in series [1] is given as 85%. In the series on phosphodiesterase, the “Inhibition of phosphodiesterase activity” value is listed as “does not inhibit”.
